In patent US20200206248A1, “COMBINED MEDICINAL PREPARATION FOR TREATING VIRAL INFECTIONS” (ALLA CHEM, LLC, priority 2017, published 2020):

Tests used:
[1] = system: NL4.3 HIV strain (NL4.3-GFP); assay: Anti-HIV activity in SupT1 cells infected with NL4.3-GFP; format: cell-based; conditions: read after 45 hours
Procedure: (§1) The anti-HIV activity of active ingredients (test compounds) was evaluated using SupT1 cells. The cells were infected with the NL4.3 HIV strain carrying a gene of green fluorescence protein (NL4.3-GFP). The virus preparation was obtained by transfection of 293T cells of proviral DNA. Forty-eight hours after the transfection, the preparation was frozen and stored until use. To enhance the infection efficiency, the suspension of SupT1 cells was precipitated from the infection mixture by centrifugation. Test compounds were added to the cells immediately before virus addition. After a 2-hour incubation, the infection mixture was replaced by fresh culture medium with test compounds. The infection efficiency was evaluated following 45 hours by counting the percent of fluorescing cells against noninfected cell cultures. The cytotoxicity of test compounds was evaluated simultaneously at the same, but not infected, SupT1 cellular line using the XTT reagent. To this end, serial ten-fold dilutions of test compounds were prepared (starting with 10 μM to evaluate viral activity or with 100 μM to evaluate cytotoxicity). […] As a result, the values of activity EC50, cytotoxicity CC50, and selectivity index SI were calculated. The test quality was evaluated using the following controls: signal to background ratio, integrase inhibitor raltegravir (1 μM), and reproducibility of the test. […]

SupT1 cells = assay: Cytotoxicity in non-infected SupT1 cells (XTT reagent); format: cell-based
Procedure: as §1

HBV = assay: Anti-HBV activity in AD38 cells (secreted HBV DNA, qPCR); format: cell-based; conditions: 4-day incubation
Procedure: (§2) Anti-HBV activity of tenofovir of formulas 4f, 4h, 4k, 4m (test compounds) was evaluated in the cell line of human hepatoma AD38 carrying integrated HBV DNA with terminal repeats [Lander S, et. al, Antimicrobial Agents and Chemotherapy, 1997, pp. 1715-1720]. The cell line was made available by Dr. C. Seeger, Fox Chase Cancer Center, Philadelphia, Pa.). Simultaneously, cytotoxicity was evaluated.
The cells were cultivated in complete DMEM/F12 culture medium containing 2 mM of L-glutamine (Thermo Scientific, Cat #11320033), 10% fetal bovine serum (ThermoFisher Scientific, Cat#), 1% antibiotic-antimycotic solution (ThermoFisher Scientific, Cat#15240096), and 0.3 μg/ml of tetracycline (Sigma, Cat # T7660-5G). The cells were seeded into 96-well Corning Biocoat plates (Corning, Cat # 356407) in 225 μl of complete medium without tetracycline, 20 000 cells per well. The test compounds were dissolved first in DMSO (Sigma cat. D2650), then in DMEM/F12 medium, and 9 dilutions in log 3 steps (225 μl) were added to the cells. The final concentrations of test compounds varied from […] to 1 nM. […]
The technique of real-time quantitative polymerase chain reaction (RT-qPCR) was applied using the CFX96TM Real-Time System instrument (Bio-Rad, Hercules, Calif.) and polymerase AmpliTaq Gold® DNA Polymerase (Applied Biosystems®). […]
The fluorescent signal was read at the end of each cycle. […]

AD38 cell line = assay: Cytotoxicity in AD38 cells (ATPLite); format: cell-based, human; conditions: 3 days
Procedure: as §2
The cytotoxicity of test compounds was determined simultaneously on the same AD38 cell line. The cells were cultivated in a 96-well black plate with a transparent bottom (10^4 cells/well) in complete DMEM/F12 medium containing 2 mM of L-glutamine (Thermo Scientific, Cat #11320033), 10% fetal bovine serum (ThermoFisher Scientific, Cat#), and 1% antibiotic-antimycotic solution (ThermoFisher Scientific, Cat#15240096). The AD38 cells were seeded in 96-well plates (7.5×10^3 cells/well in 100 μl of medium). The solutions of test compounds in DMEM were prepared immediately before use. […] The number of living cells was counted using the ATPLite kit (Perkin Elmer, Boston, USA) in compliance with manufacturer's instructions. […] After additional 5-minute incubation on a rocking platform at 600 rev/min, the plates were kept in dark for 10 minutes, and the luminescence was read using TopCount NXT (Packard, Perkin Elmer). […] CC50 values (Table 2) were then determined using XLfit 4 software.

[2] = Acute toxicity of SODF, intragastric administration to mice; format: in vivo; conditions: 3000 mg/kg
Procedure: (§3) Evaluation of SODF acute toxicity and tolerated toxic and lethal doses for single intragastric administration to male and female mice and rats. Evaluation was carried out for 24 male rats weighing 235-260 g and […] female rats weighing 225-250 g as well as for 24 male mice weighing 21-25 g and 24 female mice weighing 20-24 g. All in all, there were 8 groups in each of the four categories. SODF was administered in the largest possible volume 10 ml/kg three times a day at a 40-minute interval. Prior to administration, SODFs were dispersed, then ground in a mortar and mixed with a 0.5% Tween 80 solution to obtain a suspension suitable for intragastric administration to animals at a dose of ≤10 ml/kg. Solutions for administration were always prepared on the day of administration. Prepared SODF suspensions were administered at the same time every day (within a deviation of maximum 4 hours). […] On each of the 14 days following SODF administration, the weights of rats and mice were recorded and the animals were examined to detect any cases of death or abnormal condition. In this way, parameters of acute SODF toxicity were established.

[3] = Acute toxicity of SODF, intragastric administration to rats; format: in vivo; conditions: 3000 mg/kg
Procedure: as §3

Row | SMILES | EC50 [1] [nM] | CC50 (SupT1 cells) [nM] | EC50 (HBV) [nM] | CC50 (AD38 cell line) [nM] | body weight gain [2] | body weight gain [3]
1 | CC(C)OC(=O)[C@H](C)N[P@](=O)(CO[C@H](C)Cn1cnc2c(N)ncnc21)Oc1ccccc1 [Compound 4f, tenofovir alafenamide hemifumarate] | 43 | > 100000 | 0.3 to 0.7 | 3000 | – | –
2 | CCC(=O)[N-]S(=O)(=O)c1ccc(NC(=O)Cc2ccc(Br)c(Oc3cc(Cl)cc(C#N)c3)c2F)c(Cl)c1.[Na+] [Compound 1a, elsulfavirine sodium] | – | – | – | – | did not affect body weight gain | did not affect body weight gain
